These results are taken from US12649750B2, “Macrocyclic compounds, compositions, and methods of using thereof” (Sionna Therapeutics Inc., priority 2022, dated 2026).

One assay has as its target T1, NBD1 (Homo sapiens, UniProt P13569).
T1 construct: Purified recombinant NBD1 was produced using previously described methods; made in house
Kind of assay: Aggregation analysis using differential static light scattering (DSLS), thermal stability of NBD1 (ΔTagg). Format: binding. The following applies: ΔTagg versus DMSO control, NBD1 0.2 mg/ml. An outline of the steps: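 Thermal aggregation of purified NBD1 was followed by static light scattering during a 1° C./min ramp to 70° C. Protein was at 0.2 mg/ml with 2 mM ATP at pH7.6. Each compound's Tagg was referenced to DMSO controls.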

Another assay has as its target T2, CFTR (Homo sapiens, UniProt P13569, DEL508-508).
T2 construct: Primary human bronchial epithelial cells from a ΔF508 homozygous CF donor; host or cells: primary human bronchial epithelial cells (CF-HBE), ΔF508 homozygous donor
Kind of assay: TECC24 AUC fold over DMSO @10 μM, CFTR-mediated transepithelial chloride transport in CF-HBE cells. Format: cell-based. The following applies: test agent AUC divided by DMSO vehicle AUC, primary CF-HBE cells, ΔF508 homozygous donor, 48 hours incubation. An outline of the steps: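 ΔF508-homozygous primary bronchial epithelial cells incubated 48 h at 36.5° C with compound (10 μM) in IL-13-containing medium, then TECC24 current-clamp recording in pH 7.4 Hepes saline with benzamil 10 μM, forskolin 10 μM, then CFTR inhibitor-172 20 μM. Equivalent Cl− current AUC between forskolin and inhibitor, expressed as fold over DMSO.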

T2 sequence (P13569 with tags, fused parts or gaps DEL508-508): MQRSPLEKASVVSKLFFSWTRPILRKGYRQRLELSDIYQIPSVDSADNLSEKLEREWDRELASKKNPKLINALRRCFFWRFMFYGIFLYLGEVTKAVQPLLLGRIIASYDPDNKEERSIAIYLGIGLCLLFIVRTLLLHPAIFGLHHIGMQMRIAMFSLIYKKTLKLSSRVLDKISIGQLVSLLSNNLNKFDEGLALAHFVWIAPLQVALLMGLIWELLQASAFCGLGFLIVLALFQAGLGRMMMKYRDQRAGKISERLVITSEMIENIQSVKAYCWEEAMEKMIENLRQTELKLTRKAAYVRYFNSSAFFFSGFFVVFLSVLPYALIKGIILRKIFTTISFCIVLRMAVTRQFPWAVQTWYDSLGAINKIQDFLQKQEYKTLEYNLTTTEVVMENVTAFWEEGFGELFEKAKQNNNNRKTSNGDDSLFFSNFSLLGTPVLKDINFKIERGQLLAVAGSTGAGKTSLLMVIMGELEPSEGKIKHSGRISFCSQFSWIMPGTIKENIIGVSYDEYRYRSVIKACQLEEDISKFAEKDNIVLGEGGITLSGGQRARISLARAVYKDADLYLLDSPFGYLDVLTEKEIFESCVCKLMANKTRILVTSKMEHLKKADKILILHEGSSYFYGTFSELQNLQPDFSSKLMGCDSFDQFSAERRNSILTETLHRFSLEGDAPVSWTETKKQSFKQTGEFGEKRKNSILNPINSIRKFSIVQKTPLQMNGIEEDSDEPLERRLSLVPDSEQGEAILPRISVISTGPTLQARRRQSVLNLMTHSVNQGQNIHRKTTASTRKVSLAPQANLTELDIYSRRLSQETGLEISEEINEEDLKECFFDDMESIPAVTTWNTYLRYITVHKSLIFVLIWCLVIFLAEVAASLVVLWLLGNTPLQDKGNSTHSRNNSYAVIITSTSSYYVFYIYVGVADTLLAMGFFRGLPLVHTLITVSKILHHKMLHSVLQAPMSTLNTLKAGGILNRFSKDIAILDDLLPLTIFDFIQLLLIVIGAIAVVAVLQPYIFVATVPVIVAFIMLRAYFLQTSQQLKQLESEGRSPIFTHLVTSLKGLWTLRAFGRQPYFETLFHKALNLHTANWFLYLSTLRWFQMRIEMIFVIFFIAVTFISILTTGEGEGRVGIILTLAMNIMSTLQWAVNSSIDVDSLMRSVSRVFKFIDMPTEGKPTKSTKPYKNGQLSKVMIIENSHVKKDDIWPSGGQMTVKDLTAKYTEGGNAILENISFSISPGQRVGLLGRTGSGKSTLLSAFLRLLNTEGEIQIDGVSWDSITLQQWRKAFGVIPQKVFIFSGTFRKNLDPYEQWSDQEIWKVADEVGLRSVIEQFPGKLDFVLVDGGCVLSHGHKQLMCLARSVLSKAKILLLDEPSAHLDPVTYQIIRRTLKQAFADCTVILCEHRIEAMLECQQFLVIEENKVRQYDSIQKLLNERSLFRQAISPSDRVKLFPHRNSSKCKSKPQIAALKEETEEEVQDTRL
T1 sequence (P13569 423-646 limits assumed): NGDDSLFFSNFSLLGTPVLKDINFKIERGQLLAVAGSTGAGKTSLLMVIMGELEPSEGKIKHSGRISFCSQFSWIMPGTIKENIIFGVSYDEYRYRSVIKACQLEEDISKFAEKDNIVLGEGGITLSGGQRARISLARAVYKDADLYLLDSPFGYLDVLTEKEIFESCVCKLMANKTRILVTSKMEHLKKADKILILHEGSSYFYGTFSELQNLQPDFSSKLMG

Consider `CC1(C)CCCC(c2cccc(CCC(=O)O)c2)n2ccc(n2)-c2cccc(c2)Oc2c(F)cc3[nH]ccc3c2CCS(=O)(=O)C1` (stereo not shown) [Compound 23, 3-[3-(22-Fluoro-10,10-dimethyl-12,12-dioxo-24-oxa-12lambda6-thia-5,19,30-triazapentacyclo[23.3.1.12,5.015,23.016,20]triaconta-1(29),2(30),3,15,17,20,22,25,27-nonaen-6-yl)phenyl]propanoic Acid], for which the “DSLS 3D (100 μM ΔT)” value at NBD1 was “C (a value greater than 10 °C and less than or equal to 25 °C is marked “C”)”. Also, the “TECC (AUC, 10 μM)” value at CFTR is “B (a value between 12-20 is marked “B”)”.
In the case of `CC(Cc1cccc(C2CCCC(C)(C)CS(=O)(=O)CCc3c(c(F)cc4[nH]ccc34)Oc3cccc(c3)-c3ccn2n3)c1)C(=O)O` (stereo not shown) [Compound 25, 3-[3-(22-Fluoro-10,10-dimethyl-12,12-dioxo-24-oxa-12lambda6-thia-5,19,30-triazapentacyclo[23.3.1.12,5.015,23.016,20]triaconta-1(29),2(30),3,15,17,20,22,25,27-nonaen-6-yl)phenyl]-2-methyl-propanoic Acid], the “DSLS 3D (100 μM ΔT)” value on NBD1 was “C (a value greater than 10 °C and less than or equal to 25 °C is marked “C”)”. Besides, the “TECC (AUC, 10 μM)” value at CFTR is on record as “A (a TECC value less than 12 is marked “A”)”.
For `CC1(C)CCCC(c2cccc(CC(=O)O)c2)n2ccc(n2)-c2cc(ccc2F)Oc2c(F)cc3[nH]ccc3c2CCS(=O)(=O)C1` (stereo not shown) [Compound 26, 2-[3-(22,28-Difluoro-10,10-dimethyl-12,12-dioxo-24-oxa-12lambda6-thia-5,19,30-triazapentacyclo[23.3.1.12,5.015,23.016,20]triaconta-1(29),2(30),3,15,17,20,22,25,27-nonaen-6-yl)phenyl]acetic Acid], the “DSLS 3D (100 μM ΔT)” value at NBD1 was “C (a value greater than 10 °C and less than or equal to 25 °C is marked “C”)”. Besides, the “TECC (AUC, 10 μM)” value at CFTR was “C (a value between 20 and 80 is marked “C”)”.
`CC1(c2cccc(CCC(=O)O)c2)CCCCCS(=O)(=O)CCc2c(c(F)cc3[nH]ccc23)Oc2ccc(F)c(c2)-c2ncc1[nH]2` (stereo not shown) [Compound 37, 3-[3-(22,28-Difluoro-6-methyl-12,12-dioxo-24-oxa-12λ6-thia-3,19,30-triazapentacyclo[23.3.1.12,5.015,23.016,20]triaconta-1(29),2,4,15,17,20,22,25,27-nonaen-6-yl)phenyl]propanoic Acid]: the “DSLS 3D (100 μM ΔT)” value on NBD1 was “C (a value greater than 10 °C and less than or equal to 25 °C is marked “C”)”. On CFTR, the “TECC (AUC, 10 μM)” value was “A (a TECC value less than 12 is marked “A”)”.
On to `O=C(O)CCc1cccc(C2CCS(=O)(=O)CCc3cn(nn3)Cc3c(c(F)cc4[nH]ccc34)Oc3ccc(F)c(c3)-c3ncc2[nH]3)c1F` (stereo not shown) [Compound 40, 3-[3-(24,30-Difluoro-9,9-dioxo-26-oxa-9lambda6-thia-3,13,14,15,21,33-hexazahexacyclo[25.3.1.12,5.112,15.017,25.018,22]tritriaconta-1(31),2,4,12(32),13,17,19,22,24,27,29-undecaen-6-yl)-2-fluoro-phenyl]propanoic Acid], for which, on NBD1, the “DSLS 3D (100 μM ΔT)” value is “C (a value greater than 10 °C and less than or equal to 25 °C is marked “C”)”. Also, on CFTR, the “TECC (AUC, 10 μM)” value is “B (a value between 12-20 is marked “B”)”.
For `O=S1(=O)CCc2cn(nn2)Cc2c(c(F)cc3[nH]ccc23)Oc2ccc(F)c(c2)-c2ncc([nH]2)C(c2ccccc2F)CC1` (stereo not shown) [Compound 41, 24,30-Difluoro-6-(2-fluorophenyl)-26-oxa-9λ6-thia-3,13,14,15,21,33-hexazahexacyclo[25.3.1.12,5.112,15.017,25.018,22]tritriaconta-1(31),2,4,12(32),13,17,19,22,24,27,29-undecaene 9,9-dioxide], the “DSLS 3D (100 μM ΔT)” value at NBD1 was “C (a value greater than 10 °C and less than or equal to 25 °C is marked “C”)”. In addition, on CFTR, the “TECC (AUC, 10 μM)” value is listed as “A (a TECC value less than 12 is marked “A”)”.
Take `CC1CCC(C)(c2cccc(CCC(=O)O)c2)c2cnc([nH]2)-c2cc(ccc2F)Oc2c(F)cc3[nH]ccc3c2CCS(=O)(=O)CC1` (stereo not shown) [Compound 42, 3-[3-(22,28-Difluoro-6,9-dimethyl-12,12-dioxo-24-oxa-12lambda6-thia-3,19,30-triazapentacyclo[23.3.1.12,5.015,23.016,20]triaconta-1(29),2,4,15,17,20,22,25,27-nonaen-6-yl)phenyl]propanoic Acid]: the “DSLS 3D (100 μM ΔT)” value on NBD1 was “C (a value greater than 10 °C and less than or equal to 25 °C is marked “C”)”. On CFTR, the “TECC (AUC, 10 μM)” value is reported as “B (a value between 12-20 is marked “B”)”.
For the molecule `CC1(C)CCCC(C)(c2cccc(CCC(=O)O)c2)c2coc(n2)-c2cc(ccc2F)Oc2c(F)cc3[nH]ccc3c2CCS(=O)(=O)C1` (stereo not shown) [Compound 44, 3-[3-(22,28-Difluoro-6,10,10-trimethyl-12,12-dioxo-3,24-dioxa-12lambda6-thia-19,30-diazapentacyclo[23.3.1.12,5.015,23.016,20]triaconta-1(29),2(30),4,15,17,20,22,25,27-nonaen-6-yl)phenyl]propanoic Acid], at NBD1, the “DSLS 3D (100 μM ΔT)” value is “C (a value greater than 10 °C and less than or equal to 25 °C is marked “C”)”. Moreover, the “TECC (AUC, 10 μM)” value on CFTR is reported as “A (a TECC value less than 12 is marked “A”)”.
On to `CC1(C)CSCc2c(c(F)cc3[nH]ccc23)Oc2ccc(F)c(c2)-c2nc(c[nH]2)C(C)(c2cccc(CCC(=O)O)c2)CCCO1` (stereo not shown) [Compound 46, 3-[3-(22,28-difluoro-6,11,11-trimethyl-10,24-dioxa-13-thia-3,19,30-triazapentacyclo[23.3.1.12,5.015,23.016,20]triaconta-1(29),2(30),4,15,17,20,22,25,27-nonaen-6-yl)phenyl]propanoic Acid], for which the “DSLS 3D (100 μM ΔT)” value at NBD1 is “C (a value greater than 10 °C and less than or equal to 25 °C is marked “C”)”. Besides, the “TECC (AUC, 10 μM)” value on CFTR is “C (a value between 20 and 80 is marked “C”)”.
Consider `CC1(C)C[S+]([O-])Cc2c(c(F)cc3[nH]ccc23)Oc2ccc(F)c(c2)-c2nc(c[nH]2)C(C)(c2cccc(CCC(=O)O)c2)CCCO1` (stereo not shown) [Compound 47, 3-[3-(22,28-Difluoro-6,11,11-trimethyl-13-oxo-10,24-dioxa-13M-thia-3,19,30-triazapentacyclo[23.3.1.12,5.015,23.016,20]triaconta-1(29),2,4,15,17,20,22,25,27-nonaen-6-yl)phenyl]propanoic Acid], for which the “DSLS 3D (100 μM ΔT)” value at NBD1 was “C (a value greater than 10 °C and less than or equal to 25 °C is marked “C”)”. Further, the “TECC (AUC, 10 μM)” value at CFTR was “B (a value between 12-20 is marked “B”)”.
In the case of `CC1(C)CS(=O)(=O)Cc2c(c(F)cc3[nH]ccc23)Oc2ccc(F)c(c2)-c2ncc([nH]2)C(C)(c2cccc(CCC(=O)O)c2)CCCO1` (stereo not shown) [Compound 48, 3-[3-(22,28-Difluoro-6,11,11-trimethyl-13,13-dioxo-10,24-dioxa-13λ6-thia-3,19,30-triazapentacyclo[23.3.1.12,5.015,23.016,20]triaconta-1(29),2,4,15,17,20,22,25,27-nonaen-6-yl)phenyl]propanoic Acid], the “DSLS 3D (100 μM ΔT)” value at NBD1 is “C (a value greater than 10 °C and less than or equal to 25 °C is marked “C”)”. Also, the “TECC (AUC, 10 μM)” value at CFTR is “C (a value between 20 and 80 is marked “C”)”.
Consider `CC1(C)CCCC(C)(c2cccc(CCC(=O)O)c2)c2csc(n2)-c2cccc(c2)Oc2c(F)cc3[nH]ccc3c2CCS(=O)(=O)C1` (stereo not shown) [Compound 50, 3-[3-(22-Fluoro-6,10,10-trimethyl-12,12-dioxo-24-oxa-3,12λ6-dithia-19,30-diazapentacyclo[23.3.1.12,5.015,23.016,20]triaconta-1(29),2(30),4,15,17,20,22,25,27-nonaen-6-yl)phenyl]propanoic Acid], for which the “DSLS 3D (100 μM ΔT)” value at NBD1 was “C (a value greater than 10 °C and less than or equal to 25 °C is marked “C”)”. For the same molecule, the “TECC (AUC, 10 μM)” value on CFTR is “C (a value between 20 and 80 is marked “C”)”.
For `CC1(C)CCCC(C)(c2cccc(CCC(=O)O)c2)c2coc(n2)-c2cccc(c2)Oc2c(F)cc3[nH]ccc3c2CCS(=O)(=O)C1` (stereo not shown) [Compound 51, 3-[3-(22-Fluoro-6,10,10-trimethyl-12,12-dioxo-3,24-dioxa-12λ6-thia-19,30-diazapentacyclo[23.3.1.12,5.015,23.016,20]triaconta-1(29),2(30),4,15,17,20,22,25,27-nonaen-6-yl)phenyl]propanoic Acid], the “DSLS 3D (100 μM ΔT)” value at NBD1 is “C (a value greater than 10 °C and less than or equal to 25 °C is marked “C”)”. Besides, the “TECC (AUC, 10 μM)” value on CFTR is “A (a TECC value less than 12 is marked “A”)”.
Consider `CC(CC(=O)O)c1cccc(C2CCCC(C)(C)CS(=O)(=O)CCc3c(c(F)cc4[nH]ccc34)Oc3cccc(c3)-c3ccnn32)c1` (stereo not shown) [Compound 53, 3-[3-(23-Fluoro-11,11-dimethyl-13,13-dioxo-25-oxa-13lambda6-thia-5,6,20-triazapentacyclo[24.3.1.02,6.016,24.017,21]triaconta-1(30),2,4,16,18,21,23,26,28-nonaen-7-yl)phenyl]butanoic acid], for which the “DSLS 3D (100 μM ΔT)” value at NBD1 was “A (an ΔTagg value less than or equal to 5 °C is marked “A”)”. Moreover, on CFTR, the “TECC (AUC, 10 μM)” value is reported as “A (a TECC value less than 12 is marked “A”)”.
